Like-named read-outs stand apart in the source and are kept apart here.
Key:
[1] = tested on: B. subtilis strain NCBI3610; experiment: Biofilm (pellicle) inhibition assay, B. subtilis in liquid biofilm-inducing medium; type: cell-based, Bacillus subtilis; details: for minimal effective concentration: Bacillus subtilis; for inhibition of pellicle formation at 50 μM: cells diluted 1:1000 in biofilm media, final concentration 50 μM
Experimental: Bacillus subtilis strains PY79, 3610 and their derivatives were grown in Luria-Bertani (LB) medium at 37° C. or MSgg medium (1) at 23° C. Solid media contained 1.5% Bacto agar. When appropriate, antibiotics were added at the following concentrations for growth of B. subtilis: 10 μg per ml of tetracycline, and 5 μg per ml of erythromycin, 500 μg per ml of spectinomycin.
B. subtilis strain NCBI3610 was grown at 22° C. in 12-well plates in liquid biofilm-inducing medium for 3 or 8 days. Conditioned medium (500 ml) from an 8-day-old culture was concentrated on the C-18 column and eluted step-wise with methanol. […]
Pellicle formation of strain NCBI 3610 was tested in the presence of the indicated concentrations of norspermidine (FIG. 1D) or spermidine (FIG. 1E).
To identify features of norspermidine important for its biofilm disassembly activity, we tested a library of polyamines in our biofilm inhibition assay (FIGS. 9A, 9B, 10 and Table 2).
The effect of polyamines on pellicle formation by B. subtilis was examined. B. subtilis wild-type cells were grown to a mid-logarithmic phase and diluted 1:1000 in biofilm media applied with each polyamine to the final concentration of 50 μM.
The effect of cyclic polyamines on biofilm formation by B. subtilis was examined. B. subtilis wild-type cells were grown to a mid-logarithmic phase and diluted 1:1000 in biofilm media (18A) or in a medium applied with cyclic compound 1,5,9-Triazacyclododecane to the final concentration of 50 μM (18B).

[2] = tested on: B. subtilis wild-type cells; experiment: Biofilm formation on solid biofilm medium, B. subtilis; type: cell-based, Bacillus subtilis; details: 1 μl of cells mixed with 1 μl (1 mM) polyamine
Experimental: B. subtilis wild-type cells were grown to a mid-logarithmic phase and 1 μl of cells was mixed with 1 μl (1 mM) of each polyamine. The mixture was plated on solid biofilm medium.
B. subtilis wild-type cells were grown to a mid-logarithmic phase and 1 μl of cells was either mixed with PBS (18C) or mixed with 1 μl (1 mM) of each polyamine (18D). The mixture was plated on solid biofilm medium. “3*” refers to 1,5,9-Triazacyclododecane.

[3] = tested on: B. subtilis exopolysaccharide mutant (ΔepsH; DS76) and TasA mutant (ΔtasA; FC55); experiment: Pellicle formation by matrix mutants in presence of norspermidine; type: cell-based, Bacillus subtilis; details: 25 μM norspermidine, 3-day-old cultures
Excerpt: It was observed that the residual pellicle (wispy fragments of floating material with some structure) produced in the presence of norspermidine resembled pellicles seen for a mutant blocked in exopolysaccharide production but not those seen (thin, featureless pellicles) for a mutant blocked in amyloid-fiber production. […] In other words, the effect of norspermidine was synergistic with that of a mutation blocking fiber formation but not with a mutant blocked in exopolysaccharide production (FIG. 4B).

[4] = tested on: exopolysaccharide and TasA of B. subtilis NCBI 3610; experiment: Fluorescence microscopy of matrix components (concanavalin A-Texas Red, TasA-mCherry), B. subtilis; type: cell-based, Bacillus subtilis
Excerpt: The cells were washed in PBS and stained for exopolysaccharide with a conjugate of concanavalin A with Texas-Red.
[…] Cells were washed in PBS, and visualized by fluorescence microscopy.
To investigate further, exopolysaccharide was visualized by fluorescence microscopy using a conjugate of the carbohydrate-binding protein concanavalin A with Texas Red (FIG. 5) (McSwain et al., 2005). As evidence of specificity, the conjugate decorated wild-type cells but not cells from a mutant (Aeps) blocked in exopolysaccharide production (FIG. 6A). Indeed, at an exposure at which concanavalin A staining with the wild type strain gave an extremely bright fluorescent signal, little or no signal could be detected for the Aeps mutant, except at long exposures and enhanced brightness (FIG. 6A). Next, we investigated the effects of norspermidine and spermidine. […] Therefore, the difference in the staining was evidently due to differential levels of cell-associated exopolysaccharide. […] Thus, while not being bound to any theory, it is believed that norspermidine disrupts the matrix and by targeting exopolysaccharide.

[5] = tested on: B. subtilis NCBI 3610 / strain FC5 (PepsA-lacZ); experiment: Growth and matrix operon expression in shaking MSgg medium; type: cell-based, Bacillus subtilis; details: 100 μM, MSgg medium with shaking
Experimental: Strain FC5 (carrying PepsA-lacZ) was grown in MSgg medium containing norspermidine (100 μM) with shaking or in untreated medium as control (NT).
NCBI 3610 was grown in MSgg medium applied with norspermidine (100 μM) with shaking or in untreated medium served as a control (NT). […] Therefore, whether norspermidine interacts directly with the exopolysaccharide was investigated. To attempt to detect such an interaction, dynamic light scattering was used. Dynamic scattering is a standard procedure for measuring the average radius of polymers in which a laser beam is transmitted through a sample containing polymers in solution (Berne, 1976; Orgad et al., 2011; Vinayahan et al., 2010).

S. aureus strain SCO1 = experiment: Submerged biofilm formation by S. aureus, crystal violet staining; type: cell-based, Staphylococcus aureus; details: for inhibition of S. aureus biofilm formation: TSB with NaCl (3%) and Glucose (0.5%), norspermidine 10 μM, norspermine 100 μM; for inhibition of S. aureus submerged biofilm formation, compound screen: compounds tested at 500 μM
Experimental: (§1) The compounds were tested at 500 μM. Biofilm formation was visualized by crystal violet staining of submerged biofilms.
(§2) Whether polyamines might prevent biofilm formation by other bacteria that produce an exopolysaccharide matrix was examined. […] The compounds were tested at 500 μM. Biofilm formation was visualized by crystal violet staining of submerged biofilms.
The medium was applied with norspermidine (10 μM), norspermine (100 μM) or spermine (500 μM). Planktonic cells were removerd (19A-D). Wells were washed once, and incubated with Crystal Violet (0.1%) for 15 mins. Wells were washed twice in DDW (19E-H).
The effect of certain polyamines combined with biofilm-inhibiting D-amino acids in Staphylococcus was examined. S. aureus strain SC-01 was grown to a mid-logarithmic phase and diluted 1:1000 into a 12 wells plate in a TSB medium applied with NaCl (3%) and Glucose (0.5%). The medium was applied with either norspermidine or D-tyrosine or both as indicated below each panel. Planktonic cells were removerd Wells were washed once, and incubated with Crystal Violet (0.1%) for 15 mins. Wells were washed twice in DDW.

E. coli strain MC4100 = experiment: Submerged biofilm formation by E. coli, crystal violet staining; type: cell-based, Escherichia coli; details: compounds tested at 500 μM
Experimental: as §1, §2
(§3) In testing E. coli, the biofilm-proficient strain MC4100 was selected because a major component of exopolysacchride is colanic acid (Danese et al., 2000; Price and Raivio, 2009).

[6] = tested on: exopolysaccharide of S. aureus cells; experiment: Fluorescence microscopy of exopolysaccharide staining, S. aureus; type: cell-based, Staphylococcus aureus
[7] = tested on: exopolysaccharide of E. coli cells; experiment: Fluorescence microscopy of exopolysaccharide staining, E. coli; type: cell-based, Escherichia coli
Excerpt: as §3

[8] = tested on: P. aeriginosa strain PA14; experiment: Biofilm formation by Pseudomonas on solid M63 medium; type: cell-based, Pseudomonas aeruginosa; details: 1 μl of cells mixed with 1 μl (10 mM) polyamine
Experimental: The effect of polyamines on biofilm formation by Pseudomonas was examined. P. aeriginosa strain PA14 were grown to a mid-logarithmic phase and 1 μl of cells was mixed with 1 μl (10 mM) of each polyamine. The mixture was plated on solid M63 medium.

[9] = tested on: Proteus mirabilis strain BB2000; experiment: Proteus mirabilis biofilm formation in polystyrene wells, crystal violet staining; type: cell-based; details: 1 mM, M9 + glucose, 48 hours at 30° C., OD 595 nm
Experimental: To examine the effects of polyamines on biofilm formation, wells were initially treated with water (no treatment), 1 mM norspermidine, and 1 mM norspermine in 3 ml M9 + glucose before inoculation with P. mirabilis. Biofilms were permitted to grow for 48 hours at 30° C. without shaking The amount of biofilm formed was assessed with the standard assay of crystal violet staining (O'Toole G et al., Biofilm formation as microbial development, Annu Rev. Microbiol. (2000) 54:49-79); supernatant was removed from the wells and crystal violet (at […]) was then incubated in each well for 15 minutes at room temperature, followed by removal of the crystal violet from the wells and a subsequent washes with water. Any crystal violet attached the wells was next solubilized with 95% ethanol for 15 minutes at room temperature, and the subsequent optical density at 595 nm in each well was measured with a multiplate reader.

B. subtilis pellicles = experiment: Disassembly of pre-formed pellicles, B. subtilis; type: cell-based, Bacillus subtilis; details: 250 μM applied at day 2, additional 24 hrs
Experimental: After incubation for the indicated times, pellicle material and the medium were separated and each brought to a volume of 3 ml. After mild sonication, the OD600 was determined for each sample. The % of disassembly represents the OD600 of the medium as a percent of the sum of the OD600 of the medium and the OD600 of the pellicle. […] Thus, D-amino acids and norspermidine act synergistically in preventing biofilm formation and triggering the disassembly of mature biofilms.
Whether polyamines could trigger disassembly of biofilms formed by B. subtilis was examined. B. subtilis wild-type cells grown in liquid biofilm medium. Cells were grown to mid-logarithmic phase and diluted 1:1000 in liquid biofilm media. At day 2, pre-formed pellicles were applied with either PBS (A) or norspermine (250 μM) (B). Pellicles were incubated for additional 24 hrs.

Compound: NCCCNCCCN [Molecule 1, N-(3-aminopropyl)propane-1,3-diamine]
- minimal effective concentration ([1]; NCBI3610, read-out: MBIC- Minimal Biofilm Inhibitory Concentration): 25 to 50 µM
- concentration at which biofilm formation was inhibited ([1]; authentic norspermidine, pellicle formation NCBI3610): 25 µM
- inhibition of pellicle formation at 50 μM [1]: inhibit biofilm formation
- inhibition of biofilm formation on solid biofilm medium [2]: inhibit biofilm formation
- effect on pellicle formation by amyloid fiber (TasA) mutant [3]: abolished pellicle formation
- effect on residual pellicle of exopolysaccharide mutant [3]: little effect on the residual pellicle
- pattern of concanavalin A-Texas Red staining of exopolysaccharide ([4]; norspermidine 25 μM, spermidine 1 mM): disrupted the relatively uniform, cell-associated pattern of staining
- effect on protein component of the matrix (TasA-mCherry) ([4]; norspermidine 50 μM): little or no effect on the protein component of the matrix
- cell growth [5]: not significantly inhibited
- inhibition of S. aureus biofilm formation (S. aureus strain SCO1): inhibit biofilm formation
- inhibition of S. aureus submerged biofilm formation, compound screen (S. aureus strain SCO1): inhibited the formation of submerged biofilms
- inhibition of E. coli submerged biofilm formation (E. coli strain MC4100): inhibited the formation of submerged biofilms
- staining of exopolysaccharide, S. aureus cells [6]: markedly diminished staining of exopolysaccharide
- staining of exopolysaccharide, E. coli cells [7]: markedly diminished staining of exopolysaccharide
- inhibition of Pseudomonas biofilm formation [8]: inhibit biofilm formation
- reduction of Proteus mirabilis biofilm formation [9]: sufficient to reduce biofilm formation

Compound: NCCCNCCCNCCCN [Molecule 2, N′-[3-(3-aminopropylamino)propyl]propane-1,3-diamine]
- minimal effective concentration ([1]; NCBI3610, B. subtilis biofilm inhibition assay, library of polyamines, read-out: MBIC- Minimal Biofilm Inhibitory Concentration): 200 µM
- inhibition of pellicle formation at 50 μM [1]: inhibit biofilm formation
- biofilm-inhibitory activity against B. subtilis ([1]; library of polyamines, structure-activity): exhibited biofilm-inhibitory activity
- inhibition of biofilm formation on solid biofilm medium [2]: inhibit biofilm formation
- disassembly of pre-formed pellicles (B. subtilis pellicles): triggered disassembly of the pellicles
- inhibition of S. aureus biofilm formation (S. aureus strain SCO1): inhibit biofilm formation
- inhibition of S. aureus submerged biofilm formation, compound screen (S. aureus strain SCO1): inhibited the formation of submerged biofilms
- inhibition of E. coli submerged biofilm formation (E. coli strain MC4100): inhibited the formation of submerged biofilms
- inhibition of Pseudomonas biofilm formation [8]: inhibit biofilm formation
- reduction of Proteus mirabilis biofilm formation [9]: sufficient to reduce biofilm formation

Source: patent publication US20140056951A1, “METHODS AND COMPOSITIONS FOR TREATING BIOFILMS” (PRESIDENT AND FELLOWS OF HARVARD COLLEGE, priority 2011, published 2014)
